US9417245B2, “Porphyrinic compounds for use in flow cytometry” (North Carolina State University, priority 2005, dated 2016)
Several values for one entry are separate records, joined by “and”; a condition that tells them apart may be missing. Equal entries are not always repeated. Where two headings read alike, the source gives them in different places.

Tests used:
[1] = Absorption spectroscopy of chlorins (B and Qy bands, log ε, B/Qy ratio); format: physicochemical; details: for ΔvQy: Example 2 Table 2, redshift relative to the parent chlorin (ZnC or Zn-M^10)
From the text: (§1) The spectral properties of interest in the chlorins include the position of the long-wavelength Qy transition, the intensity of the Qy transition, and the fluorescence quantum yield of the chlorin. The intensity of the Qy transition can be assessed by the measured molar absorption coefficient; however, comparisons of such values are somewhat unreliable given the experimental variability encountered upon handling small quantities of materials. A better comparison is achieved by examination of the ratio of the intensities of the B and Qy bands for a given compound (B/Qy ratio), which is determined simply by absorption spectroscopy without requiring determination of the molar absorption coefficient. For a wide variety of applications, bathochromic and hyperchromic shifts of the Qy band are desired (i.e., shifted to longer wavelength and intensified), thereby affording strong absorption in the deep-red region.
^1H NMR (400 MHz) and ^13C NMR (75 MHz) spectra were collected at room temperature in CDCl3. Absorption spectra were obtained in toluene at room temperature. Chlorins were analyzed by laser desorption mass spectrometry (LD-MS) in the absence of a matrix. Fast atom bombardment mass spectrometry (FAB-MS) data are reported for the molecule ion or protonated molecule ion. Melting points are uncorrected. All commercially available materials were used as received. All palladium-coupling reactions were carried out using standard Schlenk-line techniques.
as §1, with “increased” for “intensified), thereby affording strong absorption”, “intensity).” for “the deep-red region.”
^1H NMR (400 MHz) and ^13C NMR (75 MHz) spectra were collected at room temperature in CDCl3 unless noted otherwise. Absorption spectra were obtained in toluene at room temperature. Chlorins were analyzed by laser desorption mass spectrometry (LD-MS) in the absence of a matrix. Metalation of free base chlorins was monitored by fluorescence spectroscopy. Melting points are uncorrected. All commercially available materials were used as received.

[2] = Fluorescence spectroscopy (emission bands, fluorescence quantum yield); format: physicochemical; details: in toluene at room temperature
Protocol: The fluorescence spectra and fluorescence quantum yields reported herein were collected in toluene at room temperature. Measurements of fluorescence quantum yield (Φf) were carried out using chlorin Zn-11 (Φf=0.065) as a standard.^16

[3] = literature, cited from earlier work; for Qy band position: FIG. 3, natural pigments, in diethyl ether

Row | Compound | Qy band position ([1]; in toluene at room temperature) | ΔvQy ([1]; toluene) [cm⁻¹] | Qy band position [3] | further results
1 | Cc1ccc(-c2c3nc(c(-c4c(C)cc(C)cc4C)c4cc5c([nH]4)c(c4nc(cc6ccc2[nH]6)C(C)(C)C4)CC5=O)C=C3)cc1 [Compound 2, 18,18-Dimethyl-10-mesityl-13^1-oxo-5-p-tolylphorbine] | 660 nm | – | – | –
2 | CC(=O)c1cc2[n]3c1=CC1=NC(=Cc4ccc([n]4[Zn]3)C(c3ccc(C)cc3)=C3C=CC(=N3)C=2c2c(C)cc(C)cc2C)C(C)(C)C1 [Zn-1, Zn(II)-13-Acetyl-17,18-dihydro-10-mesityl-18,18-dimethyl-5-p-tolylporphyrin] | 632 nm and 635 nm | – | – | B band position ([1]; in toluene at room temperature): 424 nm; B/Qy band intensity ratio ([1]; in toluene at room temperature): 2.9; log ε (Qy band) ([1]; molar absorption coefficient comparison, toluene): 4.75; strong Qy(0,0) / dominant fluorescence band [2]: around 641 nm
3 | CC(=O)c1cc2[n]3c1C=C1CC(C)(C)C(=N1)C=c1cc(C#C[Si](C(C)C)(C(C)C)C(C)C)c([n]1[Zn]3)=CC1=NC(=C2c2c(C)cc(C)cc2C)C=C1 [ZnC-E^3M^10A^13, Zn(II)-13-Acetyl-3-[2-(triisopropylsilyl)ethynyl]-17,18-dihydro-10-mesityl-18,18-dimethylporphyrin] | 652 nm | 1160 | – | –
4 | Cc1cc(C)c(C2=c3cc(C#C[Si](C(C)C)(C(C)C)C(C)C)c4[n]3[Zn][n]3c(cc(C#C[Si](C(C)C)(C(C)C)C(C)C)c3C=C3C=CC2=N3)C=C2N=C(C=4)CC2(C)C)c(C)c1 [ZnC-E^3M^10E^13, Zn(II)-3,13-Bis[2-(triisopropylsilyl)ethynyl]-17,18-dihydro-10-mesityl-18,18-dimethylporphyrin] | 646 nm | 1020 | – | –
5 | CC(=O)c1cc2[n]3c1C=C1CC(C)(C)C(=N1)C=c1ccc([n]1[Zn]3)=CC1=NC(=C2c2c(C)cc(C)cc2C)C=C1 [ZnC-M^10A^13, Zn(II)-13-Acetyl-17,18-dihydro-10-mesityl-18,18-dimethylporphyrin] | 632 nm | 680 | – | B/Qy band intensity ratio ([1]; in toluene at room temperature): 2.2
6 | Cc1cc(C)c(C2=c3cc(C#C[Si](C(C)C)(C(C)C)C(C)C)c4[n]3[Zn][n]3c(ccc3C=C3N=C(C=4)CC3(C)C)C=C3C=CC2=N3)c(C)c1 [ZnC-M^10E^13, Zn(II)-13-[2-(Triisopropylsilyl)ethynyl]-17,18-dihydro-10-mesityl-18,18-dimethylporphyrin] | 626 nm | 530 | – | –
7 | C=Cc1cc2[n]3c1C=C1C=CC(=N1)C(c1c(C)cc(C)cc1C)=c1ccc([n]1[Zn]3)=CC1=NC(=C2)C(C)(C)C1 [ZnC-V^3M^10] | 621 nm | 400 | – | –
8 | C=Cc1c(C)c2cc3nc(c4c5[n-]c(cc6nc(cc1[n-]2)C(C)=C6CC)c(C)c5C(=O)[C@@H]4C(=O)OC)[C@@H](CCC(=O)OC/C=C(\C)CCC[C@H](C)CCC[C@H](C)CCCC(C)C)[C@@H]3C.[Mg+2] [chlorophyll a] | – | – | 662 nm | B band position ([3]; chlorophyll a): 430 nm; B/Qy band intensity ratio ([3]; chlorophyll a): 1.3
9 | C=Cc1c(C)c2cc3nc(c4c5[n-]c(cc6nc(cc1[n-]2)C(C=O)=C6CC)c(C)c5C(=O)[C@@H]4C(=O)OC)[C@@H](CCC(=O)OC/C=C(\C)CCC[C@H](C)CCC[C@H](C)CCCC(C)C)[C@@H]3C.[Mg+2] [chlorophyll b] | – | – | 644 nm and 642 nm | –
10 | pheophytin a | – | – | 667 nm | –
